From ChEMBL document CHEMBL1201862, “PubChem BioAssay data set” (2004)
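Each compound was tested at five concentrations against cells in 96-well plates for 48 hours. GI50 is the concentration that inhibits growth by half.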 The source made the active and inactive calls. Cut-off read from the data, not from the text of the source: active = GI50 up to about 1.1 µM and inactive = higher.

Assays:
Test in all cases: NCI-60 cell line screen, 48 h
[1] = test system: BT-549
[2] = test system: A498
[3] = test system: MCF7
[4] = test system: HCT-15
[5] = test system: NCI/ADR-RES
[6] = test system: K562
[7] = test system: CAKI-1
[8] = test system: HOP-62
[9] = test system: MDA-N
[10] = test system: UO-31
[11] = test system: NCI-H460
[12] = test system: SN12C
[13] = test system: MOLT-4
[14] = test system: SK-MEL-5
[15] = test system: T47D
[16] = test system: 786-0
[17] = test system: HT-29
[18] = test system: NCI-H522
[19] = test system: OVCAR-3
[20] = test system: SK-OV-3

| Compound | GI50 [1] | GI50 [2] | GI50 [3] | GI50 [4] | GI50 [5] | GI50 [6] | GI50 [7] | GI50 [8] | GI50 [9] | GI50 [10] | GI50 [11] | GI50 [12] | GI50 [13] | GI50 [14] | GI50 [15] | GI50 [16] | GI50 [17] | GI50 [18] | GI50 [19] | GI50 [20] |
| --- | --- | --- | --- | --- | --- | --- | --- | --- | --- | --- | --- | --- | --- | --- | --- | --- | --- | --- | --- | --- |
| CC(C)(Oc1ccc(-c2cccc3ccccc23)cc1)C(=O)O | > 100 µM (inactive) | > 100 µM (inactive) | > 100 µM (inactive) | 77.3 µM | > 100 µM (inactive) | 1.3 µM (inactive) | > 100 µM (inactive) | > 100 µM (inactive) | > 100 µM (inactive) | > 100 µM (inactive) | > 100 µM (inactive) | 85.1 µM (inactive) | > 100 µM (inactive) | 99.5 µM (inactive) | 80.2 µM (inactive) | > 100 µM (inactive) | > 100 µM (inactive) | > 100 µM (inactive) | > 100 µM (inactive) | > 100 µM (inactive) |
| CC(C)OC(=O)c1ccc(NCc2cc(O)ccc2O)cc1 | 2.38 µM (inactive) | 22.5 µM (inactive) | 1.66 µM (inactive) | 2.69 µM | 1.95 µM (inactive) | 0.946 µM (active) | 1.28 µM (inactive) | 4.98 µM (inactive) | 2.52 µM (inactive) | 1.51 µM (inactive) | 11.1 µM (inactive) | 1.71 µM (inactive) | 1.39 µM (inactive) | 3.29 µM (inactive) | 2.18 µM (inactive) | 2.84 µM (inactive) | 13.7 µM (inactive) | 0.21 µM (active) | 1.47 µM (inactive) | 17.3 µM (inactive) |
| CCOC(=O)C(=O)C(/C(=N/N(C)C)C(=O)Nc1ccc(C)cc1C)c1nc2ccccc2nc1O (stereo not drawn) | > 100 µM (inactive) | > 100 µM (inactive) | > 100 µM (inactive) | > 100 µM | > 100 µM (inactive) | > 100 µM (inactive) | > 100 µM (inactive) | > 100 µM (inactive) | > 100 µM (inactive) | > 100 µM (inactive) | > 100 µM (inactive) | > 100 µM (inactive) | > 100 µM (inactive) | > 100 µM (inactive) | > 100 µM (inactive) | > 100 µM (inactive) | > 100 µM (inactive) | > 100 µM (inactive) | > 100 µM (inactive) | > 100 µM (inactive) |
| Cc1cccc2c1CC(C1OC(=O)c3c(C)cccc31)C2=O (stereo not drawn) | > 100 µM (inactive) | > 100 µM (inactive) | > 100 µM (inactive) | > 100 µM | > 100 µM (inactive) | > 100 µM (inactive) | > 100 µM (inactive) | > 100 µM (inactive) | > 100 µM (inactive) | > 100 µM (inactive) | > 100 µM (inactive) | > 100 µM (inactive) | > 100 µM (inactive) | > 100 µM (inactive) | > 100 µM (inactive) | > 100 µM (inactive) | > 100 µM (inactive) | 15.7 µM (inactive) | > 100 µM (inactive) | > 100 µM (inactive) |
| CC1=CC[C@@]2(CO)[C@@H]([C@@H]1C)[C@H]1CC[C@@H]3[C@@]4(C)CC[C@H](O)C(C)(C)[C@@H]4CC[C@@]3(C)[C@]1(C)C[C@@H]2O | 20.3 µM (inactive) | 24 µM (inactive) | 8.43 µM (inactive) | 46.3 µM | 27.1 µM (inactive) | 45.7 µM (inactive) | 19.8 µM (inactive) | 14.3 µM (inactive) | 81.7 µM (inactive) | 53.3 µM (inactive) | 16.3 µM (inactive) | 75.3 µM (inactive) | 21.3 µM (inactive) | 13 µM (inactive) | 11.9 µM (inactive) | 24.5 µM (inactive) | 29.8 µM (inactive) | 8.91 µM (inactive) | 31.5 µM (inactive) | 14.4 µM (inactive) |
| COc1ccc(/C=N/NC(=S)Nc2cc(C)ccc2OC)cc1 | 26.6 µM (inactive) | 35.2 µM (inactive) | 22.9 µM (inactive) | 10 µM | 41.9 µM (inactive) | 0.63 µM (active) | 29.7 µM (inactive) | 34.8 µM (inactive) | 21.1 µM (inactive) | 37.9 µM (inactive) | – | 25.1 µM (inactive) | 9.98 µM (inactive) | 15.6 µM (inactive) | 32.9 µM (inactive) | 22.7 µM (inactive) | 10.1 µM (inactive) | 19.3 µM (inactive) | 40.2 µM (inactive) | 51.8 µM (inactive) |
| Cc1ccc(S(=O)(=O)NNC2(NS(=O)(=O)c3ccc(Cl)cc3)C(Cl)=C(Cl)C(=O)c3ccccc32)cc1 (stereo not drawn) | 14.9 µM (inactive) | 17.8 µM (inactive) | 16.4 µM (inactive) | 24.4 µM | 23.1 µM (inactive) | 7.93 µM (inactive) | 18.4 µM (inactive) | 21.3 µM (inactive) | 17.4 µM (inactive) | 26.8 µM (inactive) | 17.9 µM (inactive) | 17 µM (inactive) | 25.6 µM (inactive) | 15.2 µM (inactive) | 28.3 µM (inactive) | 14.1 µM (inactive) | 19.1 µM (inactive) | 21.7 µM (inactive) | 16.4 µM (inactive) | 16.9 µM (inactive) |
| C#CC1(O)CCC2[C@@H]3CCc4cc(Oc5nc(F)nc(-c6c(C)c(C(=O)OCC)n7ccccc67)n5)ccc4C3CC[C@@]21C (stereo partly drawn) | > 100 µM (inactive) | > 100 µM (inactive) | > 100 µM (inactive) | > 100 µM | > 100 µM (inactive) | 29.6 µM (inactive) | > 100 µM (inactive) | > 100 µM (inactive) | > 100 µM (inactive) | > 100 µM (inactive) | > 100 µM (inactive) | > 100 µM (inactive) | > 100 µM (inactive) | > 100 µM (inactive) | > 100 µM (inactive) | > 100 µM (inactive) | > 100 µM (inactive) | > 100 µM (inactive) | > 100 µM (inactive) | > 100 µM (inactive) |
| O=C1CCC2C(O)c3cc4c(cc3C(c3ccc5c(c3)OCO5)N12)OCO4 (stereo not drawn) | 47.6 µM (inactive) | > 100 µM (inactive) | > 100 µM (inactive) | > 100 µM | 94 µM (inactive) | > 100 µM (inactive) | > 100 µM (inactive) | 25 µM (inactive) | > 100 µM (inactive) | 59.7 µM (inactive) | > 100 µM (inactive) | 76 µM (inactive) | > 100 µM (inactive) | > 100 µM (inactive) | > 100 µM (inactive) | 82 µM (inactive) | > 100 µM (inactive) | 89.5 µM (inactive) | > 100 µM (inactive) | 40 µM (inactive) |
| COC(=O)/C=C\C(C#N)(C#N)/N=C/c1ccsc1 | 1.84 µM (inactive) | 18.8 µM (inactive) | 1.88 µM (inactive) | 1.55 µM | 2.54 µM (inactive) | 0.525 µM (active) | 2.26 µM (inactive) | 16.9 µM (inactive) | 3.83 µM (inactive) | 3.03 µM (inactive) | 17.3 µM (inactive) | 5.33 µM (inactive) | 1.16 µM (inactive) | 4.66 µM (inactive) | 1.86 µM (inactive) | 1.37 µM (inactive) | 4.18 µM (inactive) | 0.662 µM (active) | 1.86 µM (inactive) | 17.2 µM (inactive) |
| COCN1CCN=c2c1c1c3c(c4ccccc4n23)CCC1 | > 100 µM (inactive) | > 100 µM (inactive) | > 100 µM (inactive) | > 100 µM | > 100 µM (inactive) | > 100 µM (inactive) | > 100 µM (inactive) | > 100 µM (inactive) | > 100 µM (inactive) | > 100 µM (inactive) | > 100 µM (inactive) | > 100 µM (inactive) | > 100 µM (inactive) | > 100 µM (inactive) | > 100 µM (inactive) | > 100 µM (inactive) | > 100 µM (inactive) | > 100 µM (inactive) | > 100 µM (inactive) | > 100 µM (inactive) |
| CSc1ccc(/C=C2\N=C(c3ccccc3)N(c3nc4ccc(Sc5ccccc5)cc4[nH]3)C2=O)cc1 | 18.3 µM (inactive) | 18.2 µM (inactive) | 15.1 µM (inactive) | 18.2 µM | 19.4 µM (inactive) | 14 µM (inactive) | 21.5 µM (inactive) | 17.2 µM (inactive) | 3.37 µM (inactive) | 18.3 µM (inactive) | 19.1 µM (inactive) | 21.7 µM (inactive) | 22.3 µM (inactive) | 13.3 µM (inactive) | 20.5 µM (inactive) | 13.9 µM (inactive) | 17.5 µM (inactive) | 15.9 µM (inactive) | 2.01 µM (inactive) | 14.7 µM (inactive) |
| NS(=O)(=O)c1nnc(NC(=O)c2ccccc2)s1 | > 100 µM (inactive) | > 100 µM (inactive) | > 100 µM (inactive) | > 100 µM | > 100 µM (inactive) | > 100 µM (inactive) | > 100 µM (inactive) | > 100 µM (inactive) | > 100 µM (inactive) | > 100 µM (inactive) | > 100 µM (inactive) | > 100 µM (inactive) | > 100 µM (inactive) | > 100 µM (inactive) | > 100 µM (inactive) | > 100 µM (inactive) | – | > 100 µM (inactive) | > 100 µM (inactive) | > 100 µM (inactive) |
| C[N+](C)(CCCn1ccnc1[N+](=O)[O-])CCCn1ccnc1[N+](=O)[O-] | 69.8 µM (inactive) | > 100 µM (inactive) | > 100 µM (inactive) | > 100 µM | > 100 µM (inactive) | > 100 µM (inactive) | > 100 µM (inactive) | > 100 µM (inactive) | > 100 µM (inactive) | > 100 µM (inactive) | > 100 µM (inactive) | > 100 µM (inactive) | > 100 µM (inactive) | > 100 µM (inactive) | > 100 µM (inactive) | > 100 µM (inactive) | > 100 µM (inactive) | > 100 µM (inactive) | > 100 µM (inactive) | > 100 µM (inactive) |
